Results published in ChEMBL document CHEMBL1201862, “PubChem BioAssay data set” (2004).
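Interpolation was linear, between the two tested concentrations surrounding the appropriate level; five concentrations were tested over 48 hours in 96-well plates. Abbreviation: GI50, concentration required for 50% inhibition of growth.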 Active and inactive are the calls of the source. No stated cut-off is given here; in the data, active = GI50 up to about 1.1 µM and inactive = higher.

Assays:
Assay in all cases: NCI-60 cell line screen, 48 h
SK-OV-3 = test system: SK-OV-3
SK-MEL-2 = test system: SK-MEL-2
SF-539 = test system: SF-539
CCRF-CEM = test system: CCRF-CEM
SNB-75 = test system: SNB-75
SF-295 = test system: SF-295
HL-60 = test system: HL-60
A498 = test system: A498
HOP-62 = test system: HOP-62
LOX IMVI = test system: LOX IMVI
Malme-3M = test system: Malme-3M
NCI-H460 = test system: NCI-H460
EKVX = test system: EKVX
K562 = test system: K562
SR = test system: SR
CAKI-1 = test system: CAKI-1

Measured: GI50

Nc1ccc(C(=O)CC2(O)C(=O)Nc3c(Cl)cc(Cl)cc32)cc1 (configuration not stated)
inactive: SK-OV-3 > 100 µM | SK-MEL-2 > 100 µM | SF-539 > 100 µM | CCRF-CEM 16.4 µM | SNB-75 58.1 µM | SF-295 > 100 µM | HL-60 24.9 µM | A498 > 100 µM | HOP-62 > 100 µM | LOX IMVI 34.5 µM | Malme-3M > 100 µM | NCI-H460 > 100 µM | EKVX > 100 µM | K562 40.1 µM

CCCC/C=C/C1Cc2ccccc2CN1S(=O)(=O)c1ccc(C)cc1 (configuration not stated)
inactive: SK-OV-3 26.6 µM | SK-MEL-2 14.3 µM | SF-539 15.7 µM | CCRF-CEM 4.9 µM | SNB-75 13.3 µM | SF-295 13.9 µM | HL-60 1.84 µM | HOP-62 31.5 µM | LOX IMVI 8.34 µM | Malme-3M 6.67 µM | SR 2.77 µM | NCI-H460 12.7 µM | EKVX 13.7 µM | K562 3.64 µM

CC(C)N(C(=O)C12C3C4C5C3C1(C(=O)N(C(C)C)C(C)C)C5(C#N)C42)C(C)C (configuration not stated)
inactive: SK-OV-3 > 100 µM | SK-MEL-2 > 100 µM | SF-539 > 100 µM | CCRF-CEM 22 µM | SNB-75 > 100 µM | SF-295 > 100 µM | HL-60 21.1 µM | A498 > 100 µM | HOP-62 > 100 µM | LOX IMVI 20.8 µM | Malme-3M > 100 µM | CAKI-1 > 100 µM | SR 17.9 µM | NCI-H460 61 µM | EKVX > 100 µM | K562 33.7 µM

O=C1COc2cc3c(cc2N1)SCC(=O)N3
inactive: SK-OV-3 > 100 µM | SK-MEL-2 > 100 µM | SF-539 > 100 µM | CCRF-CEM > 100 µM | SNB-75 > 100 µM | SF-295 > 100 µM | HL-60 > 100 µM | HOP-62 > 100 µM | Malme-3M > 100 µM | CAKI-1 > 100 µM | SR > 100 µM | EKVX 6.41 µM | K562 > 100 µM

C=CC[C@@]1(C#N)C[C@H](C[C@]2(C#N)C[C@H](CCl)OC(C)(C)O2)OC(C)(C)O1
inactive: SK-OV-3 > 100 µM | SK-MEL-2 > 100 µM | SF-539 > 100 µM | CCRF-CEM > 100 µM | SNB-75 64.4 µM | SF-295 > 100 µM | HL-60 36 µM | A498 > 100 µM | HOP-62 > 100 µM | LOX IMVI > 100 µM | Malme-3M > 100 µM | CAKI-1 > 100 µM | SR 60.7 µM | NCI-H460 > 100 µM | EKVX > 100 µM | K562 53 µM

O=C1C(c2ccc([N+](=O)[O-])cc2)=[N+]([O-])c2ccc([N+](=O)[O-])cc21
inactive: SK-OV-3 36.4 µM | SF-539 52.1 µM | CCRF-CEM 24.2 µM | SNB-75 62.1 µM | SF-295 56.1 µM | HL-60 19.5 µM | LOX IMVI 46.5 µM | SR 35.1 µM | NCI-H460 > 100 µM | EKVX > 100 µM | K562 27.7 µM

CNC1=C(C)C(=O)C(C)=C(C(C)(C)CC(=O)n2cc(F)c(=O)[nH]c2=O)C1=O
inactive: SK-OV-3 > 100 µM | SK-MEL-2 > 63.5 µM | SF-539 3.97 µM | CCRF-CEM > 65.3 µM | SNB-75 69.3 µM | SF-295 > 67.9 µM | HL-60 17.8 µM | A498 > 23.9 µM | HOP-62 3.97 µM | LOX IMVI 71 µM | Malme-3M > 43.1 µM | CAKI-1 22.8 µM | NCI-H460 2.99 µM | EKVX 16.1 µM | K562 32 µM

c1ccc(N2N=NC3C4CC(C5c6ccccc6C45)C32)cc1 (configuration not stated)
inactive: SK-OV-3 31.5 µM | SF-539 78.5 µM | CCRF-CEM 14 µM | SNB-75 35.7 µM | SF-295 38.4 µM | HL-60 19.1 µM | A498 39.1 µM | HOP-62 64.4 µM | LOX IMVI 18.8 µM | Malme-3M 20.8 µM | CAKI-1 31 µM | SR 20.2 µM | NCI-H460 40.6 µM | EKVX 37.4 µM | K562 36.1 µM

CCOc1cc2ccc3c4cc(OC)c(OC)cc4cnc3c2cc1OCC
inactive: SK-OV-3 > 100 µM | SK-MEL-2 > 100 µM | SF-539 > 100 µM | CCRF-CEM > 100 µM | SNB-75 > 100 µM | SF-295 > 100 µM | A498 > 100 µM | HOP-62 > 100 µM | Malme-3M > 100 µM | CAKI-1 > 100 µM | NCI-H460 > 100 µM | EKVX > 100 µM | K562 > 100 µM
